Laboratory results as given in ChEMBL document CHEMBL4270614, “Tuning the biological activity of cationic anthraquinone analogues specifically toward Staphylococcus aureus” (Eur J Med Chem, 2018).
Converted amounts (≈) assume the structure as drawn.

Columns and labels:
Escherichia coli [1] = experiment: Antibacterial activity against Escherichia coli ATCC 25922 measured after 12 to 18 hrs; type: functional
Staphylococcus aureus [2] = experiment: Antibacterial activity against Staphylococcus aureus ATCC 25923 measured after 12 to 18 hrs; type: functional
Staphylococcus aureus [3] = experiment: Antibacterial activity against methicillin-resistant Staphylococcus aureus ATCC 33591 measured after 12 to 18 hrs; type: functional
Staphylococcus aureus [4] = experiment: Antibacterial activity against methicillin-resistant Staphylococcus aureus ATCC 43300 measured after 12 to 18 hrs; type: functional
BEAS-2B = experiment: Cytotoxicity against human BEAS2B cells after 48 hrs by MTT assay; type: cell-based
A549 = experiment: Cytotoxicity against human A549 cells after 48 hrs by MTT assay; type: cell-based; details: A549, 48 h
[5] = Selectivity index, ratio of IC50 for human BEAS2B cells to IC50 for human A549 cells; details: BEAS2B cells versus A549 cells, read-out: Ratio IC50
CCD-841CoN = experiment: Cytotoxicity against human CCD-841-CoN cells after 48 hrs by MTT assay; type: cell-based
COLO 205 = experiment: Cytotoxicity against human COLO205 cells after 48 hrs by MTT assay; type: cell-based; details: COLO 205, 48 h
[6] = Selectivity index, ratio of IC50 for human CCD-841-CoN cells to IC50 for human COLO205 cells; details: CCD-841-CoN cells versus COLO205 cells, read-out: Ratio IC50
Escherichia coli [7] = experiment: Antibacterial activity against Escherichia coli ATCC 25922; type: functional
Staphylococcus aureus [8] = experiment: Antibacterial activity against Staphylococcus aureus ATCC 25923; type: functional

SMILES | MIC (Escherichia coli [1]) [µg/mL] | MIC (Staphylococcus aureus [2]) [µg/mL] | MIC (Staphylococcus aureus [3]) [µg/mL] | MIC (Staphylococcus aureus [4]) [µg/mL] | IC50 (BEAS-2B) [µg/mL] | IC50 (A549) [µg/mL] | selectivity ratio [5] | IC50 (CCD-841CoN) [µg/mL] | IC50 (COLO 205) [µg/mL] | selectivity ratio [6] | MIC (Escherichia coli [7]) [µg/mL] | MIC (Staphylococcus aureus [8]) [µg/mL]
COc1ccc(-n2n[n+](C)c3c2C(=O)c2ccccc2C3=O)cc1.O=S(=O)([O-])C(F)(F)F | > 128 | 1 to 2 | 0.5 | 2 | 5.8 | 0.78 | 7.44 | 5.89 | 0.7 | 8.41 |  | 
C[n+]1nn(-c2ccc(F)cc2)c2c1C(=O)c1ccccc1C2=O.O=S(=O)([O-])C(F)(F)F | > 128 | 1 | 0.5 | 1 | 14.2 | 2.22 | 6.44 | 8.16 | 2.86 | 2.85 |  | 
CCCCCCCC[n+]1nn(-c2ccc([N+](=O)[O-])cc2)c2c1C(=O)c1ccccc1C2=O.O=S(=O)([O-])C(F)(F)F |  | 8 | 16 | 32 | 21 | 15.6 | 4.76 | 31 | 8.53 | 3.63 |  | 
CCCCCC[n+]1nn(-c2ccc([N+](=O)[O-])cc2)c2c1C(=O)c1ccccc1C2=O.O=S(=O)([O-])C(F)(F)F |  | 2 to 4 | 1 | 128 | 38.6 | 48.9 | 0.79 | 40.2 | 21.2 | 1.89 |  | 
CC[n+]1nn(-c2ccc([N+](=O)[O-])cc2)c2c1C(=O)c1ccccc1C2=O.O=S(=O)([O-])C(F)(F)F |  | 8 to 16 | 1 to 2 | 4 to 8 | 43.6 | 7.4 | 5.89 | 51.3 | 7.72 | 6.64 |  | 
COc1ccc(-n2n[n+](-c3ccc(OC)c(OC)c3)c3c2C(=O)c2ccccc2C3=O)cc1OC.O=S(=O)([O-])C(F)(F)F | > 128 | 4 | 2 | 4 | 3.76 | 1.6 | 2.35 |  |  |  |  | 
CC[n+]1nn(-c2ccc(OC)cc2)c2c1C(=O)c1ccccc1C2=O.O=S(=O)([O-])C(F)(F)F | 128 | 4 to 8 | 2 | 2 | 5 | 0.73 | 6.85 | 7.85 | 0.82 | 9.57 |  | 
CCCC[n+]1nn(-c2ccc([N+](=O)[O-])cc2)c2c1C(=O)c1ccccc1C2=O.O=S(=O)([O-])C(F)(F)F |  | 4 | 2 | 8 to 16 | 49.8 | 44.9 | 1.11 | 42.8 | 43.2 | 0.99 |  | 
C[n+]1nn(-c2ccc(C#N)cc2)c2c1C(=O)c1ccccc1C2=O.O=S(=O)([O-])C(F)(F)F | > 128 | 2 | 1 | 2 | 30.1 | 5.2 |  | 32.6 | 5.91 | 5.52 |  | 
CCCCCCCCCC[n+]1nn(-c2ccc([N+](=O)[O-])cc2)c2c1C(=O)c1ccccc1C2=O.O=S(=O)([O-])C(F)(F)F |  | 2 to 4 | 8 | 8 to 16 | 7.39 | 7.02 | 1.05 | 30.6 | 7.29 | 4.2 |  | 
CC[n+]1nn(-c2ccc(Cl)cc2)c2c1C(=O)c1ccccc1C2=O.O=S(=O)([O-])C(F)(F)F | > 128 | 2 to 4 | 1 | 2 | 4.22 | 0.85 | 4.96 | 6.65 | 0.78 | 8.53 |  | 
CCCCCCCCn1n[n+](CC)c2c1C(=O)c1ccccc1C2=O.O=S(=O)([O-])C(F)(F)F |  |  |  |  |  |  |  |  |  |  | > 128 | 0.25 to 0.5
C[n+]1nn(-c2ccc([N+](=O)[O-])cc2)c2c1C(=O)c1ccccc1C2=O.O=S(=O)([O-])C(F)(F)F | > 128 | 2 | 1 | 2 | 52.9 | 3.5 | 15.1 | 55.8 | 4.64 | 12 |  | 
NC[C@@H]1O[C@H](O[C@H]2[C@@H](O)[C@H](O[C@@H]3[C@@H](O)[C@H](N)C[C@H](N)[C@H]3O[C@H]3O[C@H](CN)[C@@H](O)[C@H](O)[C@H]3N)O[C@@H]2CO)[C@H](N)[C@@H](O)[C@@H]1O [FRAMYCETIN] | 2 (≈ 3.25 µM) | 2 to 4 (≈ 3.25 to 6.51 µM) | 256 (≈ 416 µM) | > 256 |  |  |  |  |  |  |  | 
CN[C@H](CC(C)C)C(=O)N[C@H]1C(=O)N[C@@H](CC(N)=O)C(=O)N[C@H]2C(=O)N[C@H]3C(=O)N[C@H](C(=O)N[C@H](C(=O)O)c4cc(O)cc(O)c4-c4cc3ccc4O)[C@H](O)c3ccc(c(Cl)c3)Oc3cc2cc(c3O[C@@H]2O[C@H](CO)[C@@H](O)[C@H](O)[C@H]2O[C@H]2C[C@](C)(N)[C@H](O)[C@H](C)O2)Oc2ccc(cc2Cl)[C@H]1O [VANCOMYCIN] | > 256 |  |  | 32 (≈ 22.1 µM) |  |  |  |  |  |  |  | 
